Measurements taken from patent US7235401B2, “Method for determining cell cycle position” (GE Healthcare UK Limited, priority 2001, dated 2007).
Entries after “also recorded” stand apart in the source; their conditions may differ.

Key:
[1] = tested on: U2-OS cells; experiment: Effect of cell cycle inhibiting drugs on GFP expression levels, FACS analysis of stable EGFP reporter cell line; format: cell-based; details: 100 ng/ml demecolcine or 1 mM mimosine for 24 hours (FIG. 9)
Source text: The green fluorescent protein reporter sequence in the vector described in example 1 was replaced with enhanced GFP (EGFP; Cormack, B. P. et al, Gene, (1996), 173, 33–38; BD Clontech) by standard methods. The EGFP gene is a brighter form of GFP containing the mutations F64L and S65T. In addition, EGFP contains codons that have been altered to optimise expression in mammalian cells. This new construct was transfected into U2-OS cells and a number of colonies were isolated by selection with geneticin followed by sorting of single cells using a fluorescence activated cell sorter.
The cells were prepared for FACS analysis by standard methods. Briefly the cells were fixed and permeabilised using CytoFix/CytoPerm (Becton Dickinson) according to the manufacturers procedures. The cells were then treated with 50 μg/ml RNAse and 0.4% Triton X-100 and counterstained with 100 μg/ml propidium iodide. The degree of propidium iodide staining is proportional to the amount of DNA in the cell and therefore a measure of the cell cycle phase of the cell. As expected, the degree of red propidium iodide staining and the amount of green GFP fluorescence appear to be proportional in the cells.
The cells prepared in Example 5 were grown in 25 cm^2 flasks and treated with either 100 ng/ml demecolcine (Sigma) or 1 mM mimosine (Sigma) for 24 hours. The cells were then fixed, permeabilised and stained with propidium iodide as described in example 5.

[2] = tested on: U20S cells (ATCC HTB-96); experiment: Effect of cell cycle blocking agents on GFP fluorescence from cell cycle phase marker using transiently transfected cells; format: cell-based; details: U20S cells transiently transfected with cyclin B1 promoter/D-box/CRS-GFP reporter; 24 hours exposure; confocal scanning imager (FIG. 5)
Method: U20S cells (ATCC HTB-96) were cultured in wells of a 96 well microtitre plate. Cells were transfected with a cell cycle reporter construct prepared according to Example 1, comprising a cyclin B1 promoter operably linked to sequences encoding the cyclin B1 D-box, the cyclin B1 CRS, and GFP in a pCORON4004 vector (Amersham Biosciences) using Fugene 6 (Roche) as the transfection agent.
Following 24 hours of culture, cells were exposed to the specific cell cycle blockers mimosine (blocks at G1/S phase boundary) or demecolcine (blocks in M phase). Control cells were exposed to culture media alone.
Cells were incubated for a further 24 hours and then analysed for nuclear GFP expression using a confocal scanning imager with automated image analysis (IN Cell Analysis System, Amersham Biosciences).

SMILES | cell cycle phase of arrest (FACS, propidium iodide staining) [1] | relative green fluorescence intensity (FACS, FL1H) [1] | nuclear GFP fluorescence compared to control cells [2] | cell cycle phase of arrest (FACS, propidium iodide staining) ([1]; listed as colchicine) | relative green fluorescence intensity (FACS, FL1H) ([1]; listed as colchicine)
NC(Cn1ccc(=O)c(O)c1)C(=O)O (centres unmarked) [mimosine] | partially blocked in G1/S; also recorded: arrested at the G1/S boundary | relatively low green fluorescence | decreased fluorescence | – | –
CN[C@H]1CCc2cc(OC)c(OC)c(OC)c2-c2ccc(OC)c(=O)cc21 [demecolcine] | arrested in G2/M | brighter than the cells that had been arrested at G1/S | increased fluorescence | blocked in G2/M | relatively high green fluorescence
